Test results taken from patent US20260374756A1, “HETEROCYCLIC COMPOUNDS AS INHIBITORS OF MONOACYLGLYCEROL LIPASE (MAGL)” (Hoffmann-La Roche Inc., priority 2022, published 2026).
pIC50: −log10 of the molar value.

biological target: T1, hMAGL (Homo sapiens, UniProt Q99685); experiment: 2-AG assay: MAGL inhibition, hydrolysis of 2-arachidonoylglycerol to arachidonic acid followed by mass spectrometry; type: biochemical
T1 sequence (Q99685 1-303): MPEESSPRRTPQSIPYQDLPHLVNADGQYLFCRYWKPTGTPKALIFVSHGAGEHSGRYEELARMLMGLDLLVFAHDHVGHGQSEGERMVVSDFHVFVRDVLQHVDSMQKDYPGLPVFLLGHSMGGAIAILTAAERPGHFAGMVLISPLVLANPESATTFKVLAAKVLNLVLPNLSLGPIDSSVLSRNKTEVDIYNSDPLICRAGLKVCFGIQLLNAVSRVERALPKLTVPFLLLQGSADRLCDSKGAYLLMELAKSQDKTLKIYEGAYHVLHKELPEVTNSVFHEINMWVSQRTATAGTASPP
Method: Compounds of formula (I) were profiled for MAGL inhibitory activity by determining the enzymatic activity by following the hydrolysis of the natural substrate 2-arachidonoylglycerol (2-AG) resulting in arachidonic acid, which can be followed by mass spectrometry. This assay is hereinafter abbreviated “2-AG assay”. The 2-AG assay was carried out in 384 well polypropylene assay plates. […] Compound dilutions were added to MAGL protein in assay buffer (50 mM TRIS, 1 mM EDTA, 0.01% (v/v) Tween-20, 2.5% (v/v) DMSO). After shaking, the plate was incubated for 15 min at RT. To start the reaction, 2-arachidonoylglycerol in assay buffer was added. The final concentrations in the assay was […] for MAGL protein and 8 μM 2-arachidonoylglyerol. After shaking and 30 min incubation at RT, the reaction was quenched by the addition of two assay volumes of acetonitrile containing 4 μM of d8-arachidonic acid. The amount of arachidonic acid formed was traced by an online SPE system (Agilent Rapidfire) coupled to a triple quadrupole mass spectrometer. A C18 SPE cartridge (Agilent G9205A) was used in an acetonitrile/water liquid setup. […] The activity of the compounds was calculated based on the ratio of intensities [arachidonic acid/d8-arachidonic acid].

In order of rising pIC50:
1. O=C(N1CC2(CCC(Cc3nnc(C(F)(F)F)[nH]3)CC2)C1)N1CC2(CC(n3cnc(C4CC4)n3)C2)C1 [Example 36, [6-(3-cyclopropyl-1,2,4-triazol-1-yl)-2-azaspiro[3.3]heptan-2-yl]-[7-[[5-(trifluoromethyl)-4H-1,2,4-triazol-3-yl]methyl]-2-azaspiro[3.5]nonan-2-yl]methanone]  6.52
2. N#Cc1cnn(CC2CC3(C2)CN(C(=O)N2CC4(CC(n5cnc(C6(O)CC6)n5)C4)C2)C3)c1 [Example 38]  6.72
3. O=C(N1CC2(CC(n3cnc(C4(O)CC4)n3)C2)C1)N1CC2(CN(Cc3nc(C(F)(F)F)cs3)C2)C1 [Example 52]  6.86
4. O=C(N1CC2(CC(n3cnc(C4(O)CC4)n3)C2)C1)N1CC2(CN(Cc3nc(C4CC4)ns3)C2)C1 [Example 45, [6-[(3-cyclopropyl-1,2,4-thiadiazol-5-yl)methyl]-2,6-diazaspiro[3.3]heptan-2-yl]-[6-[3-(1-hydroxycyclopropyl)-1,2,4-triazol-1-yl]-2-azaspiro[3.3]heptan-2-yl]methanone]  6.93
5. O=C(N1CC2(CCC(Cc3nnc(C(F)(F)F)[nH]3)CC2)C1)N1CC2(CC(n3cnc(C4(O)CC4)n3)C2)C1 [Example 35, [6-[3-(1-hydroxycyclopropyl)-1,2,4-triazol-1-yl]-2-azaspiro[3.3]heptan-2-yl]-[7-[[5-(trifluoromethyl)-4H-1,2,4-triazol-3-yl]methyl]-2-azaspiro[3.5]nonan-2-yl]methanone]  6.94
6. O=C(N1CC2(CC(Cn3cnc(C(F)(F)F)c3)C2)C1)N1CC2(CC(n3cnc(C4(O)CC4)n3)C2)C1 [Example 41, [6-[3-(1-hydroxycyclopropyl)-1,2,4-triazol-1-yl]-2-azaspiro[3.3]heptan-2-yl]-[6-[[4-(trifluoromethyl)imidazol-1-yl]methyl]-2-azaspiro[3.3]heptan-2-yl]methanone]  7.03
7. Cc1sc(CN2CC3(C2)CN(C(=O)N2CC4(CC(n5cnc(C(F)(F)F)n5)C4)C2)C3)nc1C(F)(F)F [Example 54, [6-[[5-methyl-4-(trifluoromethyl)thiazol-2-yl]methyl]-2,6-diazaspiro[3.3]heptan-2-yl]-[6-[3-(trifluoromethyl)-1,2,4-triazol-1-yl]-2-azaspiro[3.3]heptan-2-yl]methanone]  7.07
8. O=C(N1CC2(CCN(Cc3ncc(C(F)F)s3)CC2)C1)N1CC2(CC(n3cnc(C4(O)CC4)n3)C2)C1 [Example 33, [7-[[5-(difluoromethyl)thiazol-2-yl]methyl]-2,7-diazaspiro[3.5]nonan-2-yl]-[6-[3-(1-hydroxycyclopropyl)-1,2,4-triazol-1-yl]-2-azaspiro[3.3]heptan-2-yl]methanone]  7.12
9. O=C(N1CC2(CC(n3cnc(C(F)(F)F)n3)C2)C1)N1CC2(CN(Cc3cn[nH]c3C(F)(F)F)C2)C1 [Example 49, [6-[[5-(trifluoromethyl)-1H-pyrazol-4-yl]methyl]-2,6-diazaspiro[3.3]heptan-2-yl]-[6-[3-(trifluoromethyl)-1,2,4-triazol-1-yl]-2-azaspiro[3.3]heptan-2-yl]methanone]  7.32
10. O=C(N1CC2(CCN(Cc3cc(C(F)(F)F)sn3)CC2)C1)N1CC2(CC(n3cnc(C4(O)CC4)n3)C2)C1 [Example 48, [6-[3-(1-hydroxycyclopropyl)-1,2,4-triazol-1-yl]-2-azaspiro[3.3]heptan-2-yl]-[7-[[5-(trifluoromethyl)isothiazol-3-yl]methyl]-2,7-diazaspiro[3.5]nonan-2-yl]methanone]  7.37
11. O=C(N1CC2(CC(n3cnc(C(F)(F)F)n3)C2)C1)N1CC2(CN(Cc3nc(C4CC4)ns3)C2)C1 [Example 43, [6-[(3-cyclopropyl-1,2,4-thiadiazol-5-yl)methyl]-2,6-diazaspiro[3.3]heptan-2-yl]-[6-[3-(trifluoromethyl)-1,2,4-triazol-1-yl]-2-azaspiro[3.3]heptan-2-yl]methanone]  7.64
12. O=C(N1CC2(CCC(Cc3nnc(C(F)(F)F)[nH]3)CC2)C1)N1CC2(CC(n3cnc(C(F)(F)F)n3)C2)C1 [Example 34, [6-[3-(trifluoromethyl)-1,2,4-triazol-1-yl]-2-azaspiro[3.3]heptan-2-yl]-[7-[[5-(trifluoromethyl)-4H-1,2,4-triazol-3-yl]methyl]-2-azaspiro[3.5]nonan-2-yl]methanone]  7.66
13. O=C(N1CC2(CC(n3cnc(C(F)(F)F)n3)C2)C1)N1CC2(CN(Cc3nc(C(F)(F)F)cs3)C2)C1 [Example 51]  7.77
14. O=C(N1CC2(CCN(Cc3ncc(C(F)F)s3)CC2)C1)N1CC2(CC(n3cnc(C(F)(F)F)n3)C2)C1 [Example 31, [7-[[5-(difluoromethyl)thiazol-2-yl]methyl]-2,7-diazaspiro[3.5]nonan-2-yl]-[6-[3-(trifluoromethyl)-1,2,4-triazol-1-yl]-2-azaspiro[3.3]heptan-2-yl]methanone]  7.88
15. Cc1sc(CN2CC3(C2)CN(C(=O)N2CC4(CC(n5cnc(C6CC6)n5)C4)C2)C3)nc1C(F)(F)F [Example 55, [6-(3-cyclopropyl-1,2,4-triazol-1-yl)-2-azaspiro[3.3]heptan-2-yl]-[6-[[5-methyl-4-(trifluoromethyl)thiazol-2-yl]methyl]-2,6-diazaspiro[3.3]heptan-2-yl]methanone]  7.93
16. O=C(N1CC2(CCN(Cc3cc(C(F)(F)F)sn3)CC2)C1)N1CC2(CC(n3cnc(C(F)(F)F)n3)C2)C1 [Example 46, [7-[[5-(trifluoromethyl)isothiazol-3-yl]methyl]-2,7-diazaspiro[3.5]nonan-2-yl]-[6-[3-(trifluoromethyl)-1,2,4-triazol-1-yl]-2-azaspiro[3.3]heptan-2-yl]methanone]  7.96
17. CC(C)(C)c1ncc(CN2CC3(C2)CN(C(=O)N2CC4(CC(n5cnc(C(F)(F)F)n5)C4)C2)C3)s1 [Example 56, [6-[(2-tert-butylthiazol-5-yl)methyl]-2,6-diazaspiro[3.3]heptan-2-yl]-[6-[3-(trifluoromethyl)-1,2,4-triazol-1-yl]-2-azaspiro[3.3]heptan-2-yl]methanone]  7.97
18. O=C(N1CC2(CC(n3cnc(C4CC4)n3)C2)C1)N1CC2(CN(Cc3cn[nH]c3C(F)(F)F)C2)C1 [Example 50, [6-(3-cyclopropyl-1,2,4-triazol-1-yl)-2-azaspiro[3.3]heptan-2-yl]-[6-[[5-(trifluoromethyl)-1H-pyrazol-4-yl]methyl]-2,6-diazaspiro[3.3]heptan-2-yl]methanone]  8.10
19. O=C(N1CC2(CC(n3cnc(C4CC4)n3)C2)C1)N1CC2(CN(Cc3nc(C4CC4)ns3)C2)C1 [Example 44, [6-[(3-cyclopropyl-1,2,4-thiadiazol-5-yl)methyl]-2,6-diazaspiro[3.3]heptan-2-yl]-[6-(3-cyclopropyl-1,2,4-triazol-1-yl)-2-azaspiro[3.3]heptan-2-yl]methanone]  8.27
20. N#Cc1cnn(CC2CC3(C2)CN(C(=O)N2CC4(CC(c5cc(C6CC6)n[nH]5)C4)C2)C3)c1 [Example 37]  8.37
21. O=C(N1CC2(CC(Cn3cnc(C(F)(F)F)c3)C2)C1)N1CC2(CC(n3cnc(C4CC4)n3)C2)C1 [Example 40, [6-(3-cyclopropyl-1,2,4-triazol-1-yl)-2-azaspiro[3.3]heptan-2-yl]-[6-[[4-(trifluoromethyl)imidazol-1-yl]methyl]-2-azaspiro[3.3]heptan-2-yl]methanone]  8.38
22. O=C(N1CC2(CC(c3cc(C4CC4)n[nH]3)C2)C1)N1CC2(CN(Cc3nc(C4CC4)ns3)C2)C1 [Example 42, [6-(3-cyclopropyl-1H-pyrazol-5-yl)-2-azaspiro[3.3]heptan-2-yl]-[6-[(3-cyclopropyl-1,2,4-thiadiazol-5-yl)methyl]-2,6-diazaspiro[3.3]heptan-2-yl]methanone]  8.41
23. O=C(N1CC2(CCN(Cc3ncc(C(F)F)s3)CC2)C1)N1CC2(CC(n3cnc(C4CC4)n3)C2)C1 [Example 32]  8.54
24. O=C(N1CC2(CC(n3cnc(C4CC4)n3)C2)C1)N1CC2(CN(Cc3nc(C(F)(F)F)cs3)C2)C1 [Example 53, [6-(3-cyclopropyl-1,2,4-triazol-1-yl)-2-azaspiro[3.3]heptan-2-yl]-[6-[[4-(trifluoromethyl)thiazol-2-yl]methyl]-2,6-diazaspiro[3.3]heptan-2-yl]methanone]  8.58
25. O=C(N1CC2(CCN(Cc3cc(C(F)(F)F)sn3)CC2)C1)N1CC2(CC(n3cnc(C4CC4)n3)C2)C1 [Example 47, [6-(3-cyclopropyl-1,2,4-triazol-1-yl)-2-azaspiro[3.3]heptan-2-yl]-[7-[[5-(trifluoromethyl)isothiazol-3-yl]methyl]-2,7-diazaspiro[3.5]nonan-2-yl]methanone]  8.73
26. O=C(N1CC2(CC(Cn3cnc(C(F)(F)F)c3)C2)C1)N1CC2(CC(c3cc(C4CC4)n[nH]3)C2)C1 [Example 39, [6-(3-cyclopropyl-1H-pyrazol-5-yl)-2-azaspiro[3.3]heptan-2-yl]-[6-[[4-(trifluoromethyl)imidazol-1-yl]methyl]-2-azaspiro[3.3]heptan-2-yl]methanone]  8.81
